These results are taken from US5189016A, “Nutrient compositions containing peptides and method for administering the same” (Clintec Nutrition Co., priority 1990, dated 1993).

For data set [1] the following is noted: cited from earlier work.
On the set-up of data set [2]: species or system piglets. The conditions noted are these: in vivo. The text has this:
In this experiment slightly preterm, colostrum-deprived piglets were maintained on total parenteral nutrition from birth to day 7 of life. All piglets in this study have been enrolled and completed the study period in the University of Florida Piglet Neonatal Intensive Care Unit. Ten piglets in the control group received standard neonatal piglet total parenteral nutrition solution containing amino acids, glucose, lipid, vitamins and minerals. Eleven piglets in the experimental group received the same total […] nutrition formulation with the exception that 20% of the amino acids in the standard solution was replaced with glutamine. […] Nine piglets in each group completed the full 7 days of the study. One piglet in the control group and two piglets in the experimental group became septic. […] To date, the amino acid analyses have been completed on blood samples from six of the piglets in the experimental group and on blood samples from seven of the piglets in the control group.

Read-outs that look alike come from different tables or passages of the source. Peptide text beside a SMILES is read from it.

`NC(=O)CC[C@H](N)C(=O)O` [Glutamine, glutamine]: in data set [1] (30° C.), the Solubility in water is reported as 4.8 grams/100 mL.
Turning to `NC(=O)C[C@H](N)C(=O)O` [asparagine], in data set [1] (28° C.), the Solubility in water is 3.5 grams/100 mL.
For the compound `NCC(=O)N[C@@H](CCC(N)=O)C(=O)O` [glycylglutamine dipeptide, glycyl-glutamine] (H-Gly-Gln-OH), in data set [2], the “Adverse effect in septic piglets” value is recorded as “signs of severe convulsions”; the “Plasma glutamine concentration, mean” value came out at 544 nmol/mL; the “Plasma glutamine concentrations compared to control group” value is listed as “increases the plasma glutamine concentrations”.
`N[C@@H](Cc1c[nH]c2ccccc12)C(=O)O` [tryptophan]: in data set [1] (25° C.), the Solubility in water is given as 11.4 grams/100 mL.
